What was measured:
crabgrass = assay: Test B pre/postemergence crabgrass; format: in vivo, Digitaria sanguinalis
Summary of the method: (§1)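 Test chemicals in a non-phytotoxic solvent mixture with surfactant were sprayed preemergence onto planted seeds and postemergence onto plants 2 to 18 cm tall (1- to 4-leaf stage). After twelve to sixteen days in a greenhouse, injury was visually rated against untreated controls from 0 (no effect) to 10 (complete control).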

wheat = assay: Test B pre/postemergence wheat; format: in vivo, Triticum aestivum
Summary of the method: as §1

wild oat [1] = assay: Test B pre/postemergence wild oat; format: in vivo, Avena fatua
Summary of the method: as §1

rice = assay: Test B flood test rice; format: in vivo, Oryza sativa
Summary of the method: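 Each value is a visual injury score relative to controls, with 10 meaning complete control and 0 no effect. Evaluation took place twelve to sixteen days after the 2-leaf-stage plants were treated and kept in the greenhouse.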

winter wheat [2] = assay: Test E winter wheat; format: in vivo, Triticum aestivum; conditions: Postemergence
Summary of the method: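 Visually scored herbicidal effect relative to untreated plants, taken ~21 to 28 days post-application; compound in solvent with surfactant; postemergence sprays at the 1- to 4-leaf stage.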

blackgrass = assay: Test E blackgrass; format: in vivo, Alopecurus myosuroides; conditions: Preemergence
green foxtail = assay: Test E green foxtail; format: in vivo, Setaria viridis; conditions: Preemergence
Italian ryegrass = assay: Test E Italian ryegrass; format: in vivo, Lolium multiflorum; conditions: Preemergence
winter wheat [3] = assay: Test E winter wheat; format: in vivo, Triticum aestivum; conditions: Preemergence
wild oat [4] = assay: Test E wild oat; format: in vivo, Avena fatua; conditions: Preemergence; for Plant response rating, Wild oat: 0 to 100 scale where 0 is no effect and 100 is complete control
winter barley = assay: Test E winter barley; format: in vivo, Hordeum vulgare; conditions: Preemergence
[5] = Preemergence, Rate 62 g/ha, scale of 0 to 10 where 0 is no effect and 10 is complete control
[6] = Preemergence, Rate 250 g/ha, scale 0 to 10, 0 is no effect, 10 is complete control
[7] = Preemergence, Rate 500 g/ha, scale of 0 to 10 where 0 is no effect and 10 is complete control
[8] = Rate 62 g/ha, Postemergence, scale of 0 to 10 where 0 is no effect and 10 is complete control
[9] = Rate 125 g/ha, Postemergence, scale 0 to 10
[10] = Rate 1000 g/ha, 0 to 100 scale, 0 is no effect and 100 is complete control
[11] = Rate 500 g/ha, 0 to 100 scale where 0 is no effect and 100 is complete control
[12] = Rate 1000 g/ha, 0 to 100 scale where 0 is no effect and 100 is complete control
[13] = Postemergence, Rate 62 g/ha, scale 0 to 10, 0 is no effect, 10 is complete control
[14] = Postemergence, Rate 250 g/ha, scale 0 to 10, 0 no effect, 10 complete control
[15] = Preemergence, Rate 62 g/ha, scale 0 to 10 (0 no effect, 10 complete control)
[16] = Preemergence, Rate 125 g/ha, scale 0 to 10 (0 no effect, 10 complete control)
[17] = Preemergence, Rate 250 g/ha, scale of 0 to 10 where 0 is no effect and 10 is complete control
[18] = Preemergence, Rate 500 g/ha, scale 0 (no effect) to 10 (complete control)
[19] = Rate 125 g/ha, Postemergence, scale 0 to 10, 0 no effect, 10 complete control
[20] = Rate 500 g/ha, Postemergence, scale 0 to 10, 0 no effect, 10 complete control

CC(C)N(C(=O)n1oc(=O)n(Cc2ccco2)c1=O)c1ccc(F)cc1F [Compound 208]
Crabgrass plant response rating (crabgrass; [5]): 4
Crabgrass plant response rating (0 to 10 scale) (crabgrass; Preemergence, Rate 125 g/ha, 0 is no effect, 10 is complete control): 5
Crabgrass plant response rating (crabgrass; [6]): 6
Plant response rating, Crabgrass (crabgrass; [7]): 6
Crabgrass plant response rating (crabgrass; [8]): 0
Crabgrass plant response rating (crabgrass; [9]): 0
Plant response rating (0 to 10; 0 is no effect, 10 is complete control), Crabgrass (crabgrass; Rate 250 g/ha, Postemergence): 0
Crabgrass plant response rating (crabgrass; Rate 500 g/ha, Postemergence, scale 0 to 10): 3
Wheat plant response rating (wheat; [5]): 0
Wheat plant response rating (wheat; [6]): 0
Plant response rating, Wheat (wheat; [7]): 0
Wheat plant response rating (wheat; [8]): 0
Wheat plant response rating (wheat; [9]): 0
Plant response rating (0 to 10; 0 is no effect, 10 is complete control), Wheat (wheat; Rate 250 g/ha, Postemergence): 0
Wild oats plant response rating (wild oat [1]; [5]): 0
Wild oats plant response rating (wild oat [1]; [6]): 0
Plant response rating, Wild oats (wild oat [1]; [7]): 3
Wild oats plant response rating (wild oat [1]; [8]): 0
Wild oats plant response rating (wild oat [1]; [9]): 0
Plant response rating (0 to 10; 0 is no effect, 10 is complete control), Wild oats (wild oat [1]; Rate 250 g/ha, Postemergence): 0
Rice plant response rating (rice; Rate 62 g/ha, headed Pre-emergence (flood test species), scale 0 to 10 (0 no effect, 10 complete control)): 0
Rice plant response rating (rice; Rate 125 g/ha, Pre-emergence, flood test species, scale 0 to 10 where 0 is no effect and 10 is complete control): 0
Rice plant response rating (rice; Rate 250 g/ha, Pre-emergence, flood-test species, scale 0 to 10, 0 is no effect, 10 is complete control): 0
Rice plant response rating (rice; Rate 500 g/ha, Pre-emergence, flood test species, scale 0 to 10 (0 no effect, 10 complete control)): 0
Plant response rating, Wheat (winter) (winter wheat [2]; [10]): 60
Plant response rating, Wheat (winter) (winter wheat [2]; Rate 500 g/ha, 0 to 100 scale, 0 is no effect, 100 is complete control): 50
Blackgrass plant response rating (0 to 100 scale) (blackgrass; Rate 250 g/ha): 40
Plant response rating, Blackgrass (blackgrass; [11]): 85
Plant response rating, Blackgrass (blackgrass; [12]): 85
Green foxtail plant response rating (0 to 100 scale) (green foxtail; Rate 250 g/ha): 40
Plant response rating, Green foxtail (green foxtail; [11]): 60
Plant response rating, Green foxtail (green foxtail; [12]): 70
I. Ryegrass plant response rating (0 to 100 scale) (Italian ryegrass; Rate 250 g/ha): 50
Plant response rating, I. Ryegrass (Italian ryegrass; [11]): 60
Plant response rating, I. Ryegrass (Italian ryegrass; [12]): 95
Wheat (winter) plant response rating (0 to 100 scale) (winter wheat [3]; Rate 250 g/ha): 30
Plant response rating, Wheat (winter) (winter wheat [3]; [11]): 30
Plant response rating, Wheat (winter) (winter wheat [3]; [12]): 30
Wild oat plant response rating (0 to 100 scale) (wild oat [4]; Rate 250 g/ha): 50
Plant response rating, Wild oat (wild oat [4]; Rate 500 g/ha): 60
Plant response rating, Wild oat (wild oat [4]; Rate 1000 g/ha): 50
Barley (winter) plant response rating (0 to 100 scale) (winter barley; Rate 250 g/ha): 30
Plant response rating, Barley (winter) (winter barley; [11]): 40
Plant response rating, Barley (winter) (winter barley; [12]): 50

Cc1ccccc1-n1c(=O)on(C(=O)N(c2cc(F)cc(F)c2)C(C)C)c1=O [Compound 67]
Crabgrass plant response rating (crabgrass; [13]): 0
Crabgrass plant response rating (crabgrass; [14]): 0
Crabgrass plant response rating (crabgrass; [15]): 2
Plant response rating, Crabgrass (crabgrass; [16]): 4
Plant response rating, Crabgrass (crabgrass; [17]): 4
Crabgrass plant response rating (crabgrass; [18]): 7
Crabgrass plant response rating (crabgrass; [19]): 0
Crabgrass plant response rating (crabgrass; [20]): 0
Wheat plant response rating (wheat; [13]): 0
Wheat plant response rating (wheat; [14]): 0
Wheat plant response rating (wheat; [15]): 0
Plant response rating, Wheat (wheat; [16]): 0
Plant response rating, Wheat (wheat; [17]): 0
Wheat plant response rating (wheat; [18]): 0
Wheat plant response rating (wheat; [19]): 0
Wheat plant response rating (wheat; [20]): 0
Wild oats plant response rating (wild oat [1]; [13]): 0
Wild oats plant response rating (wild oat [1]; [14]): 0
Wild oats plant response rating (wild oat [1]; [15]): 0
Plant response rating, Wild oats (wild oat [1]; [16]): 0
Plant response rating, Wild oats (wild oat [1]; [17]): 0
Wild oats plant response rating (wild oat [1]; [18]): 2
Wild oats plant response rating (wild oat [1]; [19]): 0
Wild oats plant response rating (wild oat [1]; [20]): 0
Rice plant response rating (rice; [13]): 0
Rice plant response rating (rice; Rate 125 g/ha, Postemergence section (flood test species), scale 0 to 10, 0 no effect, 10 complete control): 0
Rice plant response rating (rice; Rate 500 g/ha, listed under Postemergence (flood test species), scale 0 to 10, 0 no effect, 10 complete control): 0
Rice plant response rating (rice; flood test, listed under Postemergence, Rate 250 g/ha, scale 0 to 10, 0 no effect, 10 complete control): 0
Plant response rating, Wheat (winter) (winter wheat [2]; Rate 250 g/ha, 0 to 100 scale (0 no effect, 100 complete control)): 20
Plant response rating, Wheat (winter) (winter wheat [2]; [10]): 40
Plant response rating, Wheat (winter) (winter wheat [2]; Rate 500 g/ha, 0 to 100 scale, 0 no effect, 100 complete control): 30
Plant response rating, Blackgrass (blackgrass; Rate 250 g/ha, 0 to 100 scale): 10
Plant response rating, Blackgrass (blackgrass; [11]): 20
Plant response rating, Blackgrass (blackgrass; [12]): 40
Plant response rating, Green foxtail (green foxtail; Rate 250 g/ha, 0 to 100 scale): 30
Plant response rating, Green foxtail (green foxtail; [11]): 55
Plant response rating, Green foxtail (green foxtail; [12]): 60
Plant response rating, I. Ryegrass (Italian ryegrass; Rate 250 g/ha, 0 to 100 scale): 40
Plant response rating, I. Ryegrass (Italian ryegrass; [11]): 30
Plant response rating, I. Ryegrass (Italian ryegrass; [12]): 50
Plant response rating, Wheat (winter) (winter wheat [3]; Rate 250 g/ha, 0 to 100 scale): 10
Plant response rating, Wheat (winter) (winter wheat [3]; [11]): 10
Plant response rating, Wheat (winter) (winter wheat [3]; [12]): 20
Plant response rating, Wild oat (wild oat [4]; Rate 500 g/ha): 40
Plant response rating, Wild oat (wild oat [4]; Rate 1000 g/ha): 50
Plant response rating, Barley (winter) (winter barley; Rate 250 g/ha, 0 to 100 scale): 20
Plant response rating, Barley (winter) (winter barley; [11]): 40
Plant response rating, Barley (winter) (winter barley; [12]): 40

Source: patent US6737383B1, “Herbicidal oxadiazolidines” (priority 1999, dated 2004)
